Test results from US20260240842A1, “METHODS TO PREVENT THERAPY RESISTANCE IN MELANOMA VIA BLOCKING GENOMIC INSTABILITY” (THE REGENTS OF THE UNIVERSITY OF CALIFORNIA, priority 2022, published 2026).

Experiments:
[1] = system: human BRAF^V600MUT (M229, M249, M395) or NRAS^Q61MUT (M202, M207, M245) melanoma cell lines; assay: Long-term clonogenic growth: emergence of acquired MAPKi-resistant colonies (DTPPs) in parental melanoma cell lines under MAPKi; assay type: cell-based; settings: for efficacy of co-treatment during the second half of the MAPKi treatment course: M229 (day 14-28) and M245 (day 15-30); for suppression of resistance with delayed co-treatment: M229 and M245, 3- to 3.5-week delay in co-treatment, FIGS. 4R and 4S; for sensitivity of M249 parental cell line to resistance suppression: M249, FIG. 4D; for prevention of DTPP formation / suppression of acquired MAPKi resistance: in combination with MAPKi (BRAFi+MEKi or MEKi), parental cell lines, FIG. 4
Description: FIGS. 4A-4U. DNA-PKi and/or PARPi co-treatment prevents acquired MAPKi-resistance in human melanoma cell lines. FIGS. 4A to 4O: Long-term clonogenic growth of isogenic parental and acquired MAPKi-resistant BRAF^V600MUT (4A to 4H) or NRAS^Q61MUT (4I to 4O) human melanoma cell lines showing acquired-resistant colonies to BRAFi+MEKi (PLX4032 at 0.5 mM, AZD6244 at 0.5 mM in 4A and 4G; PLX4032 at 0.25 mM, AZD6244 at 0.25 mM in 4D; PLX4032 at 1 mM, AZD6244 at 1 mM in 4B, 4C, 4E, 4F and 4H) or MEKi (trametinib at 0.005 mM in I and 0.01 mM in 4J and 4N; trametinib at 0.1 mM in 4K, 4M and 4O) and their suppression by indicated co-treatments with DNA-PKi (NU7026) and/or PARPi (ABT888) at indicated concentrations. Top, representative cultures; bottom, quantifications over n=4 fields (mean±SD). Data representative of 2 to 4 independent repeats. Seeding densities (cells/well in 6-well dishes) and culture durations (days): (4A) 5,000; 31, (4B) 1,000; 17, (4C) 5,000; 18, (4D) 40,000; 40, (4E) 5,000; 14, (4F) 5,000; 12, (4G) 20,000; 30, (4H) 20,000; 21, (4I) 40,000; 30, (4J) 50,000; 31, (4K) 5,000; 17, (4L) 5,000; 22, (4M) 5,000; 16, (4N) 20.000; 16, and (4O) 5,000; 16. Data representative of 2 to 4 independent repeats. FIGS. 4P and 4Q: Western blot, MTT assay (upper), and clonogenic growth assay (lower) of M245 cells transduced by lentivirus harboring shVector control or shRNAs of PRKDC (4P) or LIG4 (4Q). TUBULIN, loading control. Clonogenic growth with vehicle (14 days, 5,000 cells/well in 6-well dishes) or MEKi (29 days, 50,000 cells/well in 6-well dishes) treatments. MEKi, trametinib at 0.01 μM. Representative results of two independent experiments; quantification of n=4 fields (mean±SD). FIGS. 4R and 4S: As in 4A and 4J, respectively, except DNA-PKi and/or PARPi co-treatments were performed in M229 (4R) and M245 (4S) at a later stage of MAPKi treatment (see timepoint schema). Inhibitor concentrations for M229: BRAFi+MEKi (PLX4032 at 0.5 μM, AZD6244 at 0.5 μM), NU7026 (8 μM), ABT888 (4 μM) and NU7026+ABT888 (4 μM+4 μM). Inhibitor concentrations for M245: MEKi (trametinib at 0.01 μM), NU7026 (5 μM), ABT888 (1 μM) and NU7026+ABT888 (5 μM+1 μM). Left, representative cultures; right, quantifications over n=4 fields (mean±SD). Data representative of 2 independent repeats. FIGS. 4T and 4U: As in 4A and 4J, respectively, except DNA-PKi and/or PARPi co-treatments were performed in M229 (4T) and M245 cells (4U) at the same concentrations in R and S for the entire durations (day 1-28 in 4T; day 1-30 in 4U), the first half (day 1-14 in T; day 1-15 in 4U) or the second half (day 14-28 in 4T: day 15-30 in 4U) of the total treatment course. Top, representative cultures; bottom, quantifications over n=4 fields (mean±SD). Data representative of 2 independent repeats. P values (one-way ANOVA followed by Tukey's multiple comparison test) comparing indicated cultures versus MAPKi-only cultures (4A to 4O and 4R to 4U) or shVector culture (4P and 4Q): *, p<0.05; **, p<0.01: ***, p<0.001.
FIGS. 12A-12F. DNA-PKi and/or PARPi co-treatment prevents acquired MAPKi-resistance in human melanoma cell lines. FIGS. 12A to 12F: Long-term clonogenic growth of BRAF^V600MUT (12A, 12C and 12E) or NRAS^Q61MUT (12B, 12D and 12F) cell lines showing acquired-resistant colonies to BRAFi+MEKi (PLX4032 at 0.5 mM, AZD6244 at 0.5 mM for M229 and M395; PLX4032 at 0.25 mM, AZD6244 at 0.25 mM for M249) or MEKi (trametinib at 0.005 mM for M202 and 0.01 mM for M207 and M245) and their suppression by indicated co-treatments with DNA-PKi (VX984 in 12A and 12B; AZD7648 in 12C and 12D) and/or PARPi (olaparib in 12E and 12F) at indicated concentrations. Top, representative cultures; bottom, quantifications over n=4 fields (mean±SD). Data representative of 2 independent repeats. Seeding densities (cells/well in 6-well dishes) and culture durations (days): M202 (40,000, 30), M207 (20,000, 16), M229 (5,000, 32), M245 (50,000, 31), M249 (40,000, 40), and M395 (20,000, 30). […]

[2] = system: acquired MAPKi-resistant sub-lines (n=9) isogenic to the human BRAF^V600MUT and NRAS^Q61MUT parental cell lines; assay: Long-term clonogenic growth of acquired MAPKi-resistant sub-lines; assay type: cell-based; settings: in combination with MAPKi, lower range of the concentrations tested
Description: FIGS. 4A-4U. DNA-PKi and/or PARPi co-treatment prevents acquired MAPKi-resistance in human melanoma cell lines. FIGS. 4A to 4O: Long-term clonogenic growth of isogenic parental and acquired MAPKi-resistant BRAF^V600MUT (4A to 4H) or NRAS^Q61MUT (4I to 4O) human melanoma cell lines showing acquired-resistant colonies to BRAFi+MEKi (PLX4032 at 0.5 mM, AZD6244 at 0.5 mM in 4A and 4G; PLX4032 at 0.25 mM, AZD6244 at 0.25 mM in 4D; PLX4032 at 1 mM, AZD6244 at 1 mM in 4B, 4C, 4E, 4F and 4H) or MEKi (trametinib at 0.005 mM in I and 0.01 mM in 4J and 4N; trametinib at 0.1 mM in 4K, 4M and 4O) and their suppression by indicated co-treatments with DNA-PKi (NU7026) and/or PARPi (ABT888) at indicated concentrations. Top, representative cultures; bottom, quantifications over n=4 fields (mean±SD). Data representative of 2 to 4 independent repeats. […] Representative results of two independent experiments; quantification of n=4 fields (mean±SD). […] Left, representative cultures; right, quantifications over n=4 fields (mean±SD). […] Top, representative cultures; bottom, quantifications over n=4 fields (mean±SD). […]

| SMILES | efficacy of co-treatment during the first half of the MAPKi treatment course ([1]; M229 (day 1-14) and M245 (day 1-15), FIGS. 4T and 4U) | efficacy of co-treatment during the second half of the MAPKi treatment course ([1]; FIGS. 4T and 4U) | suppression of resistance with delayed co-treatment [1] | sensitivity of M249 parental cell line to resistance suppression [1] | prevention of DTPP formation / suppression of acquired MAPKi resistance [1] | prevention of DTPP formation / suppression of acquired MAPKi resistance ([1]; listed as DNA-PKi) | anti-clonogenic activity in acquired MAPKi-resistant sub-lines compared to isogenic parental lines [2] |
| --- | --- | --- | --- | --- | --- | --- | --- |
| O=c1cc(N2CCOCC2)oc2c1ccc1ccccc12 [NU7026] | remititive | partially remititive | reduced the suppression of resistance | highly sensitive to resistance suppression | synergistically and dose-dependently prevented DTPP formation in all parental cell lines tested | generally more effective than PARPi in preventing acquired resistance | no or reduced anti-clonogenic activity |
| C[C@]1(c2nc3c(C(N)=O)cccc3[nH]2)CCCN1 [ABT888, veliparib] | – | completely lost | reduced the suppression of resistance | highly sensitive to resistance suppression | activity in 3 of 6 parental cell lines | – | no or reduced anti-clonogenic activity |
